Measurements from patent US4022895A, “Substituted phenylglycylcephalosporins” (SmithKline Corporation, priority 1975, dated 1977).
Converted amounts (≈) assume the structure as drawn. Where two headings read alike, the source gives them in different places.

Columns and labels:
[1] = tested on: E.coli 12140; assay: In vivo activity (ED50) against E.coli 12140
[2] = tested on: E.coli SK 12140; assay: In vitro antibacterial activity (MIC); assay type: cell-based; settings: Escherichia coli, SK12140
Experimental: (§1) The compounds of this invention have antibacterial activity against Gram-positive and Gram-negative organisms. Minimum inhibitory concentrations (MIC's) ranged from 0.4 to >200 μg/ml in in vitro testing.

[3] = tested on: E. coli HH 33779; assay: In vitro antibacterial activity (MIC); assay type: cell-based; settings: Escherichia coli, HH33779; E. coli HH 33779, in vitro; read-out: MIC
Experimental: as §1

[4] = tested on: S.aureus HH 127; assay: In vitro antibacterial activity (MIC); assay type: cell-based; settings: Staphylococcus aureus, HH127; S.aureus HH 127, in vitro; read-out: MIC
Experimental: as §1

[5] = tested on: S.aureus SK 23390; assay: In vitro antibacterial activity (MIC); assay type: cell-based; settings: Staphylococcus aureus, SK23390
Experimental: as §1

[6] = tested on: Sal. paratyphl ATCC 12176; assay: In vitro antibacterial activity (MIC); assay type: cell-based
Experimental: as §1

[7] = tested on: Entero. aerog. ATCC 13048; assay: In vitro antibacterial activity (MIC); assay type: cell-based; settings: Entero. aerog. ATCC 13048, in vitro; read-out: MIC
Experimental: as §1

[8] = tested on: Kleb. pneumo. SK 4200; assay: In vitro antibacterial activity (MIC); assay type: cell-based; settings: Kleb. pneumo. SK 4200, in vitro; read-out: MIC
Experimental: as §1

[9] = tested on: Kleb. pneumo. SK 1200; assay: In vitro antibacterial activity (MIC); assay type: cell-based
Experimental: as §1

[10] = tested on: S.aureus Villaluz; assay: In vitro antibacterial activity (MIC); assay type: cell-based; settings: Staphylococcus aureus
Experimental: as §1

[11] = tested on: Shig. paradys HH 112; assay: In vitro antibacterial activity (MIC); assay type: cell-based
Experimental: as §1

[12] = tested on: Strep. faecalis HH 34358; assay: In vitro antibacterial activity (MIC); assay type: cell-based; settings: Enterococcus faecalis, HH34358; Strep. faecalis HH 34358, in vitro
Experimental: as §1

[13] = tested on: Klebs.pneumo. 4200; assay: In vivo activity (ED50) against Klebs.pneumo. 4200
[14] = tested on: Proteus morgani 179; assay: In vitro antibacterial activity (MIC); assay type: cell-based; settings: Proteus morgani 179, in vitro; read-out: MIC
Experimental: as §1

[15] = Escherichia coli, 12140, sc, E.coli 12140, s.c.
[16] = S.aureus SK 23390, in vitro, read-out: MIC
[17] = Shig. paradys HH 112, in vitro, read-out: MIC
[18] = po, Klebs.pneumo. 4200, p.o., read-out: ED50
[19] = Escherichia coli, 12140, po, E.coli 12140, p.o.
[20] = E.coli SK 12140, in vitro, read-out: MIC
[21] = Kleb. pneumo. SK 1200, in vitro, read-out: MIC
[22] = sc, Klebs.pneumo. 4200, s.c., read-out: ED50

SMILES	ED50 [1, 15] [mg/kg]	MIC [3] [µg/mL]	MIC [4] [µg/mL]	MIC [5, 16] [µg/mL]	MIC [6] [µg/mL]	MIC [7] [µg/mL]	MIC [8] [µg/mL]	MIC [10] [µg/mL]	MIC [11, 17] [µg/mL]	MIC [12] [µg/mL]	ED50 [13, 18] [mg/kg]	ED50 [1, 19] [mg/kg]	MIC [2, 20] [µg/mL]	MIC [9, 21] [µg/mL]	ED50 [13, 22] [mg/kg]	MIC [14] [µg/mL]	other results
Cc1nnc(SCC2=C(C(=O)O)N3C(=O)C(NC(=O)C(N)c4ccc(OCC(=O)O)cc4)C3SC2)s1 (stereo not drawn) [*59216]	6.2	6.3 to 25 (≈ 11.4 to 45.3 µM)	6.3 to 25 (≈ 11.4 to 45.3 µM)	100 to 200 (≈ 181 to 363 µM)	3.1 to 12.5 (≈ 5.62 to 22.7 µM)	12.5 to 50 (≈ 22.7 to 90.6 µM)	1.6 to 6.3 (≈ 2.9 to 11.4 µM)	100 to 200 (≈ 181 to 363 µM)	1.6 to 12.5 (≈ 2.9 to 22.7 µM)	50 to 200 (≈ 90.6 to 363 µM)	29						MIC [2]: 3.1 to 12.5 µg/mL (≈ 5.62 to 22.7 µM); MIC [9]: 3.1 to 12.5 µg/mL (≈ 5.62 to 22.7 µM)
Cc1nnc(SCC2=C(C(=O)O)N3C(=O)C(NC(=O)C(N)c4ccc(OCC(N)=O)cc4)C3SC2)s1 (stereo not drawn) [*71816]	13.7	50 (≈ 90.8 µM)	25 (≈ 45.4 µM)		12.5 (≈ 22.7 µM)	100 (≈ 182 µM)	25 (≈ 45.4 µM)	100 (≈ 182 µM)	12.5 (≈ 22.7 µM)	200 (≈ 363 µM)	13.7	21.5	50 (≈ 90.8 µM)	50 (≈ 90.8 µM)	11.5		MIC [5]: 12.5 µg/mL (≈ 22.7 µM)
COC(=O)COc1ccc([C@@H](N)C(=O)NC2C(=O)N3C(C(=O)O)=C(C)CSC23)cc1 (stereo partly drawn) [Compound No. 07826, 7-[D-α-Amino-α-(4'-carbomethoxymethoxyphenyl)acetamido]-3-desacetoxycephalosporanic acid]		> 200	6.3 (≈ 14.5 µM)	6.3 (≈ 14.5 µM)	50 (≈ 115 µM)	> 200	100 (≈ 230 µM)	200 (≈ 459 µM)	50 (≈ 115 µM)	100 (≈ 230 µM)			100 (≈ 230 µM)	100 (≈ 230 µM)			
COC(=O)COc1ccc([C@@H](N)C(=O)NC2C(=O)N3C(C(=O)O)=C(CSc4c[nH]nn4)CSC23)cc1 (stereo partly drawn) [Compound No. 19736, 7-[D-α-Amino-α-(4'-carbomethoxymethoxyphenyl)acetamido]-3-(1,2,3-triazol-4-ylthiomethyl)-3-cephem-4-carboxylic acid]	34	100 (≈ 187 µM)	12.5 (≈ 23.4 µM)	12.5 (≈ 23.4 µM)	25 (≈ 46.8 µM)	> 200	50 (≈ 93.5 µM)	200 (≈ 374 µM)	25 (≈ 46.8 µM)	100 (≈ 187 µM)		25	50 (≈ 93.5 µM)	50 (≈ 93.5 µM)		> 200	
COC(=O)COc1ccc([C@@H](N)C(=O)NC2C(=O)N3C(C(=O)O)=C(CSc4nnnn4C)CSC23)cc1 (stereo partly drawn) [Compound No. 26436, 7-[D-α-Amino-α-(4'-carbomethoxymethoxyphenyl)acetamido]-3-(1-methyl-1,2,3,4-tetrazol-5-ylthiomethyl)-3-cephem-4-carboxylic acid]	1.2	12.5 (≈ 22.7 µM)	6.3 (≈ 11.5 µM)	6.3 (≈ 11.5 µM)	3.1 (≈ 5.64 µM)	25 (≈ 45.5 µM)	6.3 (≈ 11.5 µM)	25 (≈ 45.5 µM)		50 (≈ 91 µM)	5.5	9.6	12.5 (≈ 22.7 µM)	6.3 (≈ 11.5 µM)	1.5	50 (≈ 91 µM)	MIC [11]: 6.5 µg/mL (≈ 11.8 µM)
Cn1nnnc1SCC1=C(C(=O)O)N2C(=O)C(NC(=O)[C@H](N)c3ccc(OCC(=O)O)cc3)C2SC1 (stereo partly drawn) [Compound No. 42526, 7-[D-α-Amino-α-(4'-carboxymethoxyphenyl)acetamido]-3-(1-methyl-1,2,3,4-tetrazol-5-ylthiomethyl)-3-cephem-4-carboxylic acid]	9.5	12.5 (≈ 23.3 µM)	25 (≈ 46.7 µM)	25 (≈ 46.7 µM)	6.3 (≈ 11.8 µM)	12.5 (≈ 23.3 µM)	3.1 (≈ 5.79 µM)	200 (≈ 373 µM)	6.3 (≈ 11.8 µM)	> 200	33	> 50	6.3 (≈ 11.8 µM)	3.1 (≈ 5.79 µM)	5.4	100 (≈ 187 µM)	
CC(=O)OCC1=C(C(=O)O)N2C(=O)C(NC(=O)[C@H](N)c3ccc(OCC(=O)O)cc3)C2SC1 (stereo partly drawn) [Compound No. 60326, 7-[D-α-Amino-α-(4'-carboxymethoxyphenyl)acetamido]-cephalosporanic acid]	11.2	25 (≈ 52.1 µM)	12.5 (≈ 26.1 µM)	12.5 (≈ 26.1 µM)	3.1 (≈ 6.47 µM)	25 (≈ 52.1 µM)	6.3 (≈ 13.1 µM)	200 (≈ 417 µM)		200 (≈ 417 µM)	63	200	6.3 (≈ 13.1 µM)	6.3 (≈ 13.1 µM)	12.5	> 200	
Cc1nnc(SCC2=C(C(=O)O)N3C(=O)C(NC(=O)[C@H](N)c4ccc(SCCC(=O)O)cc4)C3SC2)s1 (stereo partly drawn) [Compound No. 61726, 7-[D-α-Amino-α-(4'-carboxyethylthiophenyl)acetamido]-3-(5-methyl-1,3,4-thiadiazol-2-ylthiomethyl)-3-cephem-4-carboxylic acid]		25 (≈ 43 µM)	6.3 (≈ 10.8 µM)	6.3 (≈ 10.8 µM)	12.5 (≈ 21.5 µM)	25 (≈ 43 µM)	6.3 (≈ 10.8 µM)	50 (≈ 86 µM)		50 (≈ 86 µM)	> 50			6.3 (≈ 10.8 µM)	50	200 (≈ 344 µM)	MIC [2]: 12.5 µg/mL (≈ 21.5 µM)
Cn1nnnc1SCC1=C(C(=O)O)N2C(=O)C(NC(=O)[C@H](N)c3ccc(NCC(=O)O)cc3)C2SC1 (stereo partly drawn) [Compound No. 76746, 7-[D-α-Amino-α-(4'-carboxymethylaminophenyl)acetamido]-3-(1-methyl-1,2,3,4-tetrazol-5-ylthiomethyl)-3-cephem-4-carboxylic acid]		1.6 (≈ 2.99 µM)	6.3 (≈ 11.8 µM)	6.3 (≈ 11.8 µM)	3.1 (≈ 5.8 µM)	1.6 (≈ 2.99 µM)	0.8 (≈ 1.5 µM)	50 (≈ 93.5 µM)	3.1 (≈ 5.8 µM)	100 (≈ 187 µM)			1.6 (≈ 2.99 µM)	1.6 (≈ 2.99 µM)		6.3 (≈ 11.8 µM)	
NC(=O)COc1ccc([C@@H](N)C(=O)NC2C(=O)N3C(C(=O)O)=C(CSc4c[nH]nn4)CSC23)cc1 (stereo partly drawn) [Compound No. 91726, 7-[D-α-Amino-α -(4'-carbamylmethoxyphenyl)acetamido]-3-(1,2,3-triazol-4-ylthiomethyl)-3-cephem-4-carboxylic acid]	14	25 (≈ 48.1 µM)	6.3 (≈ 12.1 µM)	6.3 (≈ 12.1 µM)	6.3 (≈ 12.1 µM)	50 (≈ 96.2 µM)	12.5 (≈ 24.1 µM)	50 (≈ 96.2 µM)	6.3 (≈ 12.1 µM)	200 (≈ 385 µM)	13.6	25	50 (≈ 96.2 µM)	12.5 (≈ 24.1 µM)	12.5		
COC(=O)CNc1ccc([C@@H](N)C(=O)NC2C(=O)N3C(C(=O)O)=C(CSc4nnc(C)s4)CSC23)cc1 (stereo partly drawn) [Compound No. 96146, 7-[D-α-Amino-α-(4'-carbomethoxymethylaminophenyl)-acetamido]-3-(5-methyl-1,3,4-thiadiazol-2-ylthiomethyl)-3-cephem-4-carboxylic acid]	4.7	100 (≈ 177 µM)	6.3 (≈ 11.2 µM)	6.3 (≈ 11.2 µM)	25 (≈ 44.3 µM)	100 (≈ 177 µM)	50 (≈ 88.5 µM)	50 (≈ 88.5 µM)	25 (≈ 44.3 µM)	25 (≈ 44.3 µM)	17	16	50 (≈ 88.5 µM)	50 (≈ 88.5 µM)	2.9	> 200	
COC(=O)COc1ccc([C@@H](N)C(=O)NC2C(=O)N3C(C(=O)O)=C(CSc4nnc(C)s4)CSC23)cc1 (stereo partly drawn) [Compound No. 96826, 7-[D-α-Amino-α-(4'-carbomethoxymethoxyphenyl)acetamido]-3-(5-methyl-1,3,4-thiadiazol-2-ylthiomethyl)-3-cephem-4-carboxylic acid]	< 3	50 (≈ 88.4 µM)	3.1 (≈ 5.48 µM)	3.1 (≈ 5.48 µM)		50 (≈ 88.4 µM)	25 (≈ 44.2 µM)	25 (≈ 44.2 µM)	12.5 (≈ 22.1 µM)	25 (≈ 44.2 µM)		9.4	25 (≈ 44.2 µM)	25 (≈ 44.2 µM)	7.2	25 (≈ 44.2 µM)	ED50 ([13]; po): 12.5 mg/kg
